Three molecules from patent publication US8193175B2, “Ruthenium complexes for treating cancers” (Universite de Strasbourg, priority 2004, dated 2012) can be followed below.

One experiment deals with RDM4 line. In words: Proliferation test (UptiBlue) on RDM4 line. Type of experiment: cell-based, mouse. The following applies: 72 hours. The method, then:
(§1) The products are tested on different cell lines. The cells used are RDM4 from a murine T lymphoma and a MOLT-4 line originating from an acute lymphoblastic leukemia. These cancer lines both express the p53 protein, unlike the HL-60 cells from a human promyelocytary leukemia where, following deletion of its gene, p53 is absent.
(§2) All of these cells are cultivated in RPMI 1640-Glutamax, supplemented by 10% calf foetal serum heat inactivated at 56° C. for 30 minutes, 1 mM sodium pyruvate, 1 mM non-essential amino acids and 50 μg/mL gentamycine (Life Technologies, Cergy Pontoise, France). The cultures are kept in an incubator at 37° C. with a moisture saturated atmosphere, with 5% CO2.
(§3) This test uses the UptiBlue reagent (Interchim, Montluçon, France), metabolised by the living cells. The cells are incubated on plates with 96 wells with 10^4 cells/well (200 μL) with the product and cultivated for 72 hours. Then, 20 μL UptiBlue are added to each well. After 3 hours incubation, the fluorescence of the samples contained in the plates is measured at 590 nm (excitation at 560 nm), using a Fluorolite 1000 microplate reader (Dynex technologies, Issy-Les-Moulineaux, France).
The potential anti-cancers are first of all selected on the RDM4 line. The effect of the different organo-ruthenium compounds upon the cell viability is firstly determined by a proliferation test as a function of the product concentration. The activity of the compounds derived from Ru is compared to that of cisplatinum. The exposure of the RDM4 cells to these derivatives is translated by a dose-dependent reduction in their proliferation. Therefore, the effect is dependent upon the organic complex which surrounds the Ru nucleus. The inhibition concentration of the growth of 50% of the cells (IC50) is determined for each of the products. […] The ruthenium derivatives showing an excessive IC50 (>50 μM) were eliminated from the biological study.

For another experiment, the system named is MOLT-4. Nature of the experiment: Proliferation test (UptiBlue) on MOLT-4. Type of experiment: cell-based, human. The following applies: 72 hours, UptiBlue; unit inferred; read-out: IC50 (Molt-4). The method, then:
as §1, §2
(§4) This test uses the UptiBlue reagent (Interchim, Montluçon, France), metabolised by the living cells. The cells are incubated on plates with 96 wells with 10^4 cells/well (200 μL) with the product and cultivated for 72 hours. Then, 20 μL UptiBlue are added to each well. After 3 hours incubation, the fluorescence of the samples contained in the plates is measured at 590 nm (excitation at 560 nm), using a Fluorolite 1000 microplate reader (Dynex technologies, Issy-Les-Moulineaux, France). […]

The next experiment relates to U-937. In words: Proliferation test (UptiBlue) on U-937. Type of experiment: cell-based, human. The following applies: 72 hours, unit inferred. Here is the method:
as §2, §3
(§5) Compound 9 on other cell lines gives the following IC50: • 9 (NH32):3; 9 (Molt-4):3.8; 9 (WTK1): 3; 9 (U-937): 3. • RDM4: lymphoma, mouse AKR • TK6: human lymphoblastoid line • NH32: TK6 variant, not expressing p53 (“p53 knock-out”) • WTK1: other TK6 variant, expressing a p53 mutated gene • MOLT-4: human T lymphoblastic leukemia • U-937: human promonocyte leukemia Proliferation Test for the RDM4 Line with each Compound

The subject of experiment [1] is RDM4. In words: Apoptosis by marking with Annexin-V on RDM4. Type of experiment: cell-based, mouse. Here is the method: Cell death is measured by a first specific marking of the apoptosis. The externalisation of the anionic phospholipids, normally located on the inner layer of the plasmic membrane, is one of the precocious markers of apoptosis (Martin et al, 1996). Annexin-V is a protein which fixes specifically onto the phosphatidylserines in the presence of calcium. When Annexin-V is coupled to a fluorochrome, it makes it possible to quantify the apoptotic cells by flux cytometry.
The control cells are treated with the equivalent volume of solvent (ethanol). […] After 72 hrs, the apoptosis rate is still as low as that of the control cells. On the other hand, with treatment at 45 μM, this rate already reaches 70% at 24 hrs and exceeds 99% after 48 hrs—a sign of significant apoptosis induction.

The test system of experiment [2] is A172, HS683, N2A, and SH5Y. Nature of the experiment: MTT test on glioblastoma and neuroblastoma lines. The following applies: 48 hrs treatment; compared with cisplatinum. Type of experiment: cell-based, human. Here is the method:
FIG. 1: The A172 cells were cultivated on plates with 96 wells in DMEM medium with 10% calf serum. At 30% confluence, the cells were treated for 48 hrs with cisplatinum or the various compounds derived from ruthenium in the concentrations indicated (1, 5, 15, 50 μM). The quantity of cells present in the wells was evaluated by an MTT (MTT, Sigma) test of which the products of the reaction are quantified with an Elisa plate reader (Metertech, USA) (490-650 nm). The results obtained were related to the values of the control condition (100% viability). The graphs show an average of 8 points with the typical spacings over one experiment representative of 4 carried out. The thick black line indicates the IC50 for each graph.
TABLE 2: a summary of the results obtained on various cell lines and primary glial cultures. The experiments were carried out under the same conditions as those described for the A172 cells. Each IC50 is an indicative value obtained over 4 independent experiments.
(§6) The first step towards characterising the anticancerous effects of the compounds derived from ruthenium consists of testing their activity on tumoral lines kept in culture and comparing these effects on lines which have different characteristics as regards resistance to the anticancer treatments. Two lines of human glioblastomas (A172, HS683) and two lines of neuroblastomas (N2A and SH5Y) were used in order to test the cytostatic effects of the compounds according to the invention. Cisplatinum was chosen as the cytotoxic comparison agent. In a first approach, an MTT test was used to measure the activity of a mitochondrial enzyme, and this gives an estimate of the number of cells. Then, the cytotoxic effects of the compounds according to the invention were characterised in greater detail by analysing the morphology of the nucleus and the activation of caspase 3—two markers of cell apoptosis.

The subject of the next experiment is NH32. In words: Proliferation test (UptiBlue) on NH32. It counts as cell-based, human. The settings on record: 72 hours, unit inferred. Here is the method:
The influence of the p53 protein upon the effects induced by the products was determined by using the human lymphoblastoid line TK6 (p53 wild-type) and its NH32 variant of which the p53 gene was totally inactivated by double homologous recombination (Chuang et al, 1999). The TK6 cells originate from the American Tissue Culture Collection (ATGC, Manassas, Va., USA). The NH32 cells were supplied by H. L. Liber (Chuang et al, 1999).
as §2, §4

Experiment [3] deals with RDM4. In words: DNA fragmentation by marking with propidium iodure on RDM4. It counts as cell-based, mouse. From the text: A second specific marking of apoptosis is the fragmentation of DNA between the nucleosomes. The fragmented DNA is located in the apoptotic bodies in the terminal phase of apoptosis. This DNA is hypodiploid and so less in quantity than that present in normal cells. It can be quantified by flux cytometry after permeabilisation of the cell membranes and marking with PI. The quantity of DNA in a normal cell is 2n in the G0/G1 phase and 4n in the G2 phase. Therefore, the sub-G0 DNA in a quantity of less than 2n has a weaker fluorescence intensity.
This phenomenon tends to diminish after 48 hrs of treatment. On the other hand, when the cells are treated with 45 μM, the formation of hypodiploid particles, visualised by the sub-G0 DNA content, is less than 10% at 24 hrs and exceeds 50% at 48 hrs such as to reach 60% at 72 hrs. […] The quantity of hypodiploid particles in the control cells remains less than 4% over this same period.

In another experiment the test system is A172 glioblastoma cells. Nature of the experiment: Nucleus morphology and caspase 3 activation in A172 cells. Type of experiment: cell-based, human. The following applies: for nuclear condensation and fragmentation: 48 hrs treatment.
Excerpt: FIG. 2: A—The A172 cells were cultivated on glass slides. […] The cells were then fixed in 4% paraformaldehyde, permeabilised with 0.1% NP40 and marked with Hoechst dye (blue) and the anti-p20 antibody (active fragment of caspase 3, in red). The cells were then observed under the fluorescence microscope. B—Graphic representation of the number of cells with an apoptotic, fragmented or condensed nucleus. The bars are an average of two slides from one experiment representative of 3 carried out. C—In parallel, proteic extracts were prepared from cells treated with various drugs (cisplatinum 15 μM; CDR225 μM; CDR615 μM; CDR915 μM) and following denaturation the extracts were deposited on a !0% SDS-Page gel. After migration, the proteins were transferred onto nitrocellulose (Biorad, 0.2 μm) and the p20 fragment of the caspase 3 was detected by Western blot with an anti-p20 antibody (1/1000, R&D System).
as §6

Another experiment relates to WTK1. In words: Proliferation test (UptiBlue) on WTK1. The settings on record: 72 hours, unit inferred. Type of experiment: cell-based, human. The method, then:
as §2, §3, §5

In turn, `CC#N.CC#N.CN(C)Cc1cccc[c]1[Ru+].F[P-](F)(F)(F)(F)F.c1ccc(-c2ccccn2)nc1` [Compound 13, [Ru-2-(CH2NMe2)—C6H4-(bipy) (NCMe)2]PF6] showed an IC50 in the experiment with RDM4 line of 11 µM.

Turning to `CC#N.CC#N.CC#N.CP(C)c1ccccc1.F[P-](F)(F)(F)(F)F.[Ru+][c]1ccccc1-c1ccccn1` [Compound 9, [Ru (C6H4-2-C5H4N) (PMe2Ph) (NCMe)3]PF6], the IC50 worked out at 3.8 µM in the experiment on MOLT-4; 3 µM in the experiment on U-937; 3 µM in the experiment with NH32; 12 µM with RDM4 line; 3 µM in the experiment on WTK1. Besides, the “apoptosis rate (Annexin-V)” value in the experiment on RDM4 [1] (15 μM, up to 72 hrs) was “does not shown any effect”; with RDM4 [1] (45 μM, 24 hrs), 70%. Further, the “reduction of the number of tumoral cells (MTT)” value in experiment [2] is recorded as “at a concentration similar to or lower than that of cisplatinum”. Further, in the experiment with RDM4 [3] (15 μM, first two days), the “cell cycle distribution (propidium iodure)” value is reported as “accumulation in the G0/G1 phase”. The “hypodiploid particles (sub-G0 DNA content)” value with RDM4 [3] (45 μM, 72 hrs) worked out at 60%. The “nuclear condensation and fragmentation” value in the experiment on A172 glioblastoma cells is “induce nuclear condensation and fragmentation characteristic of apoptosis”. Further, the “proteic levels of the active fragment of caspase 3 (Western blot)” value with A172 glioblastoma cells (cisplatinum 15 μM, CDR6 15 μM, CDR9 15 μM) is “increasing the proteic levels of the active fragment of caspase 3”.

Regarding `CC#N.CC#N.Cc1ccnc(-c2cc(C)ccn2)c1.F[P-](F)(F)(F)(F)F.[Ru+][c]1ccccc1-c1ccccn1` [Compound 12, [Ru(C6H4-2-C5H4N)(4,4′-dimethyl-2,2′-bipyridine)(NCMe)2]PF6], the “reduction of the number of tumoral cells (MTT)” value in experiment [2] is listed as “at a concentration similar to or lower than that of cisplatinum”. For the same molecule, in the experiment with RDM4 line, the IC50 turned out to be 9 µM. In addition, in the experiment with A172 glioblastoma cells, the “nuclear condensation and fragmentation” value was “induce nuclear condensation and fragmentation characteristic of apoptosis”.
